Assay results as given in patent publication US20240174618A1, “SUBSTITUTED (2-HETEROARYLOXYPHENYL)SULFONATES, SALTS THEREOF AND THEIR USE AS HERBICIDAL AGENTS” (Bayer Aktiengesellschaft, priority 2021, published 2024).

Legend:
Type in all cases: in vivo
Lolium rigidum (LOLRI) [1] = assay: A. Herbicidal pre-emergence efficacy, LOLRI
Summary of the method: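 Pre-emergence soil-surface spray in sandy loam pots, WP/EC in water plus 0.5% additive, 600 L/ha. Visual % damage rating after about 3 weeks in greenhouse vs. untreated; 0% = control-like, 100% = dead plants. Rates up to 1280 g/ha.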

[2] = test system: Alopecurus myosuroides (ALOMY); assay: C. Herbicidal pre-emergence efficacy, ALOMY; settings: 320 g/ha, scored after about 3 weeks
Summary of the method: (§1)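 Pre-emergence test: formulated compounds sprayed as aqueous suspension or emulsion with 0.5% additive at 600 l/ha onto soil covering sown seeds, at rates corresponding to 320 g/ha or less. After about 3 weeks in greenhouse, efficacy scored visually as percent versus untreated controls (100% = plants dead).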

[3] = test system: Echinochloa crus-galli (ECHCG); assay: C. Herbicidal pre-emergence efficacy, ECHCG; settings: scored after about 3 weeks
Summary of the method: as §1

Lolium rigidum (LOLRI) [4] = assay: C. Herbicidal pre-emergence efficacy, LOLRI; settings: 320 g/ha, scored after about 3 weeks
Summary of the method: as §1

[5] = test system: Polygonum convolvulus (POLCO); assay: C. Herbicidal pre-emergence efficacy, POLCO; settings: scored after about 3 weeks
Summary of the method: as §1

Veronica persica (VERPE) = assay: C. Herbicidal pre-emergence efficacy, VERPE; settings: scored after about 3 weeks
Summary of the method: as §1

Kochia scoparia (KCHSC) = assay: C. Herbicidal pre-emergence efficacy, KCHSC
Summary of the method: as §1

[6] = test system: Triticum aestivum (TRZAS); assay: D. Pre-emergence effect on useful plants, TRZAS; settings: useful plant, application rate 80 g/ha
Summary of the method: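 Seeds sown in pots and covered with soil; WP or EC formulations sprayed on the soil surface as aqueous suspension/emulsion with 0.5% additive at 600 l/ha water. Plants grown in greenhouse; crop damage scored visually after about 3 weeks as % versus untreated controls (100% = dead, 0% = like control).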

[7] = test system: Amaranthus retroflexus (AMARE); assay: E. Herbicidal post-emergence efficacy, AMARE
Summary of the method: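 Greenhouse weeds were treated post-emergence at the one-leaf stage, 2-3 weeks after sowing in sandy loam, with WP or EC formulations sprayed as aqueous suspension/emulsion plus 0.5% additive at 600 l/ha, at 320 g/ha or less. Efficacy was rated visually after about 3 weeks versus untreated controls (100% = dead, 0% = like control).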

[8] = test system: Triticum aestivum (TRZAS); assay: F. Post-emergence effect on useful plants, TRZAS; settings: useful plant
Summary of the method: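 Crop plants grown in sandy loam in the greenhouse were sprayed at the one-leaf stage, 2-3 weeks after sowing, with WP or EC formulations plus 0.5% additive at 600 l/ha water. Damage was scored visually after about 3 weeks against untreated controls (0% = like control, 100% = dead).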

Post-emergence efficacy against TRZAS in % ([8]; application rate 320 g/ha) [%]	SMILES	Pre-emergence efficacy against LOLRI (Lolium rigidum (LOLRI) [1]; dosage 1280 g/ha) [%]	Pre-emergence efficacy against ALOMY [2] [%]	Pre-emergence efficacy against ECHCG ([3]; 80 g/ha) [%]	Pre-emergence efficacy against ECHCG ([3]; 320 g/ha) [%]	Pre-emergence efficacy against LOLRI (Lolium rigidum (LOLRI) [4]) [%]	Pre-emergence efficacy against POLCO ([5]; 80 g/ha) [%]	Pre-emergence efficacy against POLCO ([5]; 320 g/ha) [%]	Pre-emergence efficacy against VERPE (Veronica persica (VERPE); 80 g/ha) [%]	Pre-emergence efficacy against VERPE (Veronica persica (VERPE); 320 g/ha) [%]	Pre-emergence efficacy against KCHSC in % (Kochia scoparia (KCHSC); application rate 80 g/ha) [%]	Pre-emergence efficacy against KCHSC in % (Kochia scoparia (KCHSC); application rate 320 g/ha) [%]	Pre-emergence efficacy against TRZAS in % [6] [%]	Post-emergence efficacy against AMARE in % ([7]; application rate 80 g/ha) [%]	Post-emergence efficacy against AMARE in % ([7]; application rate 320 g/ha) [%]	Post-emergence efficacy against TRZAS in % ([8]; application rate 80 g/ha) [%]	Pre-emergence efficacy against LOLRI (Lolium rigidum (LOLRI) [1]; dosage 320 g/ha) [%]
20	O=S(=O)(CCC(F)(F)F)Oc1c(Cl)cccc1Oc1ncc(Cl)cn1 [Example I-38]	100	100	100	100	100	100	100	100	100	100	100	0	100	100	10	–
–	O=S(=O)(CCCC(F)(F)F)Oc1c(F)cccc1Oc1ncc(Br)cn1 [Example I-41]	100	100	100	100	100	100	100	100	100	100	100	20	100	100	0	100
–	N#Cc1cccc(Oc2ncc(Cl)cn2)c1OS(=O)(=O)CCCC(F)(F)F [Example I-81]	–	90	–	100	90	80	90	100	100	100	100	0	100	100	0	–
